Measured values published in PubChem BioAssay (NCI).
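Tested at 5 concentrations; 48 h exposure; 96-well plates; endpoints linearly interpolated, else capped at highest concentration. TGI is the concentration that stops growth completely.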

Key:
Test in all cases: NCI-60 cell line screen, 48 h
OVCAR-5 ovarian = system: OVCAR-5 ovarian
HS 578T breast = system: HS 578T breast
HOP-92 NSCLC = system: HOP-92 NSCLC
SF-268 CNS = system: SF-268 CNS
NCI-H460 lung = system: NCI-H460 lung
A549 NSCLC = system: A549 NSCLC
DU-145 prostate = system: DU-145 prostate
IGROV1 ovarian = system: IGROV1 ovarian
LOX IMVI melanoma = system: LOX IMVI melanoma
MOLT-4 leukemia = system: MOLT-4 leukemia
EKVX NSCLC = system: EKVX NSCLC
MDA-N = system: MDA-N
HCT-15 colon = system: HCT-15 colon
COLO 205 colon = system: COLO 205 colon
ACHN renal = system: ACHN renal
UACC-62 melanoma = system: UACC-62 melanoma
SF-295 CNS = system: SF-295 CNS
SN12C renal = system: SN12C renal
NCI-H522 lung = system: NCI-H522 lung
MDA-MB-231 breast = system: MDA-MB-231 breast
TK-10 renal = system: TK-10 renal
KM12 colon = system: KM12 colon
RXF 393 renal = system: RXF 393 renal
RPMI-8226 leukemia = system: RPMI-8226 leukemia
U251 CNS = system: U251 CNS
M14 melanoma = system: M14 melanoma
NCI-H23 lung = system: NCI-H23 lung
CAKI-1 renal = system: CAKI-1 renal
SK-MEL-2 melanoma = system: SK-MEL-2 melanoma
SW-620 colon = system: SW-620 colon
UACC-257 melanoma = system: UACC-257 melanoma
HT29 colon = system: HT29 colon
CCRF-CEM leukemia = system: CCRF-CEM leukemia
MCF7 breast = system: MCF7 breast
OVCAR-4 ovarian = system: OVCAR-4 ovarian
PC-3 prostate = system: PC-3 prostate
NCI-H226 lung = system: NCI-H226 lung
HCC-2998 colon = system: HCC-2998 colon
T-47D breast = system: T-47D breast
OVCAR-3 ovarian = system: OVCAR-3 ovarian
786-0 renal = system: 786-0 renal
A498 renal = system: A498 renal
NCI/ADR-RES ovarian = system: NCI/ADR-RES ovarian
HL-60(TB) leukemia = system: HL-60(TB) leukemia
MALME-3M melanoma = system: MALME-3M melanoma
HOP-62 NSCLC = system: HOP-62 NSCLC
UO-31 renal = system: UO-31 renal
OVCAR-8 ovarian = system: OVCAR-8 ovarian
SK-OV-3 ovarian = system: SK-OV-3 ovarian
K-562 leukemia = system: K-562 leukemia
SK-MEL-28 melanoma = system: SK-MEL-28 melanoma
MDA-MB-435 = system: MDA-MB-435
SK-MEL-5 melanoma = system: SK-MEL-5 melanoma
SNB-19 CNS = system: SNB-19 CNS
SNB-75 CNS = system: SNB-75 CNS
HCT-116 colon = system: HCT-116 colon
BT-549 breast = system: BT-549 breast
SF-539 CNS = system: SF-539 CNS
SR leukemia = system: SR leukemia

CN1[C@@H]2CCCC[C@H]2N(C)P1(=O)C(O)/C=C/c1ccccc1 (stereo partly specified)
TGI (OVCAR-5 ovarian): > 100 µM | TGI (HS 578T breast): > 100 µM | TGI (HOP-92 NSCLC): > 100 µM | TGI (SF-268 CNS): > 100 µM | TGI (NCI-H460 lung): > 100 µM | TGI (A549 NSCLC): > 100 µM | TGI (DU-145 prostate): > 100 µM | TGI (IGROV1 ovarian): > 100 µM | TGI (LOX IMVI melanoma): > 100 µM | TGI (MOLT-4 leukemia): > 100 µM | TGI (EKVX NSCLC): > 100 µM | TGI (MDA-N): > 100 µM | TGI (HCT-15 colon): > 100 µM | TGI (COLO 205 colon): > 100 µM | TGI (ACHN renal): > 100 µM | TGI (UACC-62 melanoma): > 100 µM | TGI (SF-295 CNS): > 100 µM | TGI (SN12C renal): > 100 µM | TGI (NCI-H522 lung): > 100 µM | TGI (MDA-MB-231 breast): > 100 µM | TGI (TK-10 renal): > 100 µM | TGI (KM12 colon): > 100 µM | TGI (RXF 393 renal): > 100 µM | TGI (RPMI-8226 leukemia): > 100 µM | TGI (U251 CNS): > 100 µM | TGI (M14 melanoma): > 100 µM | TGI (NCI-H23 lung): > 100 µM | TGI (CAKI-1 renal): > 100 µM | TGI (SK-MEL-2 melanoma): > 100 µM | TGI (SW-620 colon): > 100 µM | TGI (UACC-257 melanoma): > 100 µM | TGI (HT29 colon): > 100 µM | TGI (CCRF-CEM leukemia): > 100 µM | TGI (MCF7 breast): > 100 µM | TGI (OVCAR-4 ovarian): > 100 µM | TGI (PC-3 prostate): > 100 µM | TGI (NCI-H226 lung): > 100 µM | TGI (HCC-2998 colon): > 100 µM | TGI (T-47D breast): > 100 µM | TGI (OVCAR-3 ovarian): > 100 µM | TGI (786-0 renal): > 100 µM | TGI (A498 renal): > 100 µM | TGI (NCI/ADR-RES ovarian): > 100 µM | TGI (HL-60(TB) leukemia): > 100 µM | TGI (MALME-3M melanoma): > 100 µM | TGI (HOP-62 NSCLC): > 100 µM | TGI (UO-31 renal): > 100 µM | TGI (OVCAR-8 ovarian): > 100 µM | TGI (SK-OV-3 ovarian): > 100 µM | TGI (K-562 leukemia): > 100 µM | TGI (SK-MEL-28 melanoma): > 100 µM | TGI (MDA-MB-435): > 100 µM | TGI (SK-MEL-5 melanoma): > 100 µM | TGI (SNB-19 CNS): > 100 µM | TGI (SNB-75 CNS): > 100 µM | TGI (HCT-116 colon): > 100 µM | TGI (BT-549 breast): > 100 µM

C/C=C1/CN2[C@@H](C3=C[C@@H]4[C@@H]5N(C3=O)c3ccccc3[C@@]53CCN5C/C(=C/C)[C@@H]4C[C@H]53)C[C@@]34c5ccccc5N5C(=O)CC=C([C@H]1C[C@H]23)[C@H]54
TGI (OVCAR-5 ovarian): 15 µM | TGI (HS 578T breast): 17.3 µM | TGI (HOP-92 NSCLC): 13.2 µM | TGI (SF-268 CNS): 14.1 µM | TGI (NCI-H460 lung): 15.4 µM | TGI (A549 NSCLC): 15.3 µM | TGI (DU-145 prostate): 22.1 µM | TGI (MOLT-4 leukemia): 6.28 µM | TGI (EKVX NSCLC): 12.1 µM | TGI (MDA-N): 10.4 µM | TGI (HCT-15 colon): 10.3 µM | TGI (COLO 205 colon): 7.54 µM | TGI (ACHN renal): 12.1 µM | TGI (UACC-62 melanoma): 9.1 µM | TGI (SF-295 CNS): 16.4 µM | TGI (SN12C renal): 9.95 µM | TGI (NCI-H522 lung): 14.6 µM | TGI (MDA-MB-231 breast): 9.19 µM | TGI (TK-10 renal): 15 µM | TGI (KM12 colon): 17 µM | TGI (SF-539 CNS): 2.87 µM | TGI (RXF 393 renal): 10.6 µM | TGI (U251 CNS): 7.67 µM | TGI (M14 melanoma): 2.37 µM | TGI (NCI-H23 lung): 14.3 µM | TGI (CAKI-1 renal): 15.7 µM | TGI (SK-MEL-2 melanoma): 11.6 µM | TGI (SW-620 colon): 10.4 µM | TGI (UACC-257 melanoma): 2.9 µM | TGI (HT29 colon): 8.08 µM | TGI (CCRF-CEM leukemia): 2.94 µM | TGI (MCF7 breast): 10.7 µM | TGI (OVCAR-4 ovarian): 19.9 µM | TGI (PC-3 prostate): 9.72 µM | TGI (NCI-H226 lung): 16.5 µM | TGI (HCC-2998 colon): 8.75 µM | TGI (T-47D breast): 49.2 µM | TGI (OVCAR-3 ovarian): 15.8 µM | TGI (786-0 renal): 7.8 µM | TGI (A498 renal): 14.5 µM | TGI (NCI/ADR-RES ovarian): 33.6 µM | TGI (HL-60(TB) leukemia): 2.2 µM | TGI (MALME-3M melanoma): 12.5 µM | TGI (HOP-62 NSCLC): 17.5 µM | TGI (UO-31 renal): 8.34 µM | TGI (OVCAR-8 ovarian): 13.1 µM | TGI (SK-OV-3 ovarian): 16.8 µM | TGI (K-562 leukemia): 50 µM | TGI (SK-MEL-28 melanoma): 3.91 µM | TGI (MDA-MB-435): 14.1 µM | TGI (SK-MEL-5 melanoma): 8.93 µM | TGI (SNB-19 CNS): 14.7 µM | TGI (SNB-75 CNS): 17.4 µM | TGI (HCT-116 colon): 9.07 µM | TGI (BT-549 breast): 15.7 µM

O=C1CSC(c2cccc(Cl)c2)N1c1c(O)c(Cl)cc(Br)c1Cl (stereo unspecified)
TGI (OVCAR-5 ovarian): > 100 µM | TGI (HS 578T breast): > 100 µM | TGI (HOP-92 NSCLC): 29.9 µM | TGI (SF-268 CNS): > 100 µM | TGI (NCI-H460 lung): > 100 µM | TGI (A549 NSCLC): > 100 µM | TGI (DU-145 prostate): > 100 µM | TGI (LOX IMVI melanoma): 29.8 µM | TGI (MOLT-4 leukemia): 57.9 µM | TGI (EKVX NSCLC): > 100 µM | TGI (MDA-N): 34.1 µM | TGI (HCT-15 colon): 28.3 µM | TGI (COLO 205 colon): 61.2 µM | TGI (ACHN renal): 27.9 µM | TGI (UACC-62 melanoma): 56.9 µM | TGI (SF-295 CNS): > 100 µM | TGI (SN12C renal): > 100 µM | TGI (MDA-MB-231 breast): 27.5 µM | TGI (TK-10 renal): > 100 µM | TGI (KM12 colon): > 100 µM | TGI (SF-539 CNS): > 100 µM | TGI (RXF 393 renal): 35.7 µM | TGI (RPMI-8226 leukemia): 39.4 µM | TGI (U251 CNS): 72.3 µM | TGI (M14 melanoma): > 100 µM | TGI (NCI-H23 lung): > 100 µM | TGI (CAKI-1 renal): > 100 µM | TGI (SK-MEL-2 melanoma): 29 µM | TGI (SW-620 colon): 32.7 µM | TGI (UACC-257 melanoma): 67.4 µM | TGI (HT29 colon): > 100 µM | TGI (CCRF-CEM leukemia): 44.8 µM | TGI (MCF7 breast): 29 µM | TGI (OVCAR-4 ovarian): 28.1 µM | TGI (PC-3 prostate): > 100 µM | TGI (NCI-H226 lung): > 100 µM | TGI (T-47D breast): 41.7 µM | TGI (OVCAR-3 ovarian): 33.4 µM | TGI (786-0 renal): 71.7 µM | TGI (A498 renal): > 100 µM | TGI (NCI/ADR-RES ovarian): > 100 µM | TGI (HL-60(TB) leukemia): 51.8 µM | TGI (MALME-3M melanoma): > 100 µM | TGI (HOP-62 NSCLC): > 100 µM | TGI (UO-31 renal): 28.9 µM | TGI (SK-OV-3 ovarian): > 100 µM | TGI (K-562 leukemia): > 100 µM | TGI (SK-MEL-28 melanoma): > 100 µM | TGI (MDA-MB-435): 31.9 µM | TGI (SK-MEL-5 melanoma): > 100 µM | TGI (SNB-19 CNS): > 100 µM | TGI (SNB-75 CNS): > 100 µM | TGI (HCT-116 colon): 28.8 µM | TGI (SR leukemia): 70.6 µM
